Laboratory results taken from patent US20100035831A1, “ANTI-WRINKLE AGENT AND ADAM INHIBITOR” (SHISEIDO COMPANY, LTD., priority 2007, published 2010).

Tests used:
ADAM = experiment: Inhibition of PMA-induced TNF-α release from U937 cells as index of ADAM inhibition (ELISA); type: cell-based, human; conditions: tested substance 30 μg/mL, 30 min pretreatment, 10 nM PMA for 6 hours
Experimental: For ADAM inhibiting effect, the TNF-α which is cut out to be released from the membrane of the U937 cell derived from the human lymphoma through the action of the ADAM was used as an index and the inhibiting effect on the TNF-α release was assessed. A new ADAM inhibitor was explored by screening different compounds according to the present method.
The U937 cells derived from the human lymphoma were seeded to the 48-well plate adjusting the number of the cells to 1×10^5 cells/0.25 ml and cultured at 37° C. overnight. The medium which contained 30 μg/ml of alkyl glucoside was added and incubated at 37° C. for 30 min. to be pretreated. 10 nM PMA (phorbol ester:12-O-tetradecanoylphorbol-acetate; Sigma P8139) was then added and cultured at 37° C. for 6 hours. After completion of the treatment, the supernatant of the culture was collected, centrifuged and the cell-free supernatant was cryopreserved at −20° C. The assay of the released hTNF-α was performed using the hTNF-α Duo-Set ELISA kit from R & D Ltd. Each supernatant of the culture was diluted 5 folds with the medium, then 100 μl each was added to the 96-well plate and measured according to the protocol of R & D Ltd. The absorbance at 450-570 nm of each well was measured by the measurement kit and concentrations of the samples were obtained from the standard curve. The inhibition rates were calculated according to the following equation wherein A0 is the absorbance of 0% inhibiting control (the medium containing only PMA), A100 is the absorbance of 100% inhibiting control (only the medium) and AS is the absorbance of the sample.
The inhibition rate (%)=(A0−AS)/(A0−A100)×100

[1] = test system: barrier-destructed wrinkle mouse model; experiment: Wrinkle score by visual judgement in the tape-stripping barrier-destructed wrinkle mouse model; type: in vivo, hairless mice (HR-1)
Experimental: Then, the wrinkle-ameliorating effects of dodecyl β-D-glucoside (GC12), tetradecyl β-D-glucoside (GC14), and hexadecyl β-D-glucoside (GC16) amongst the new ADAM-inhibiting compounds were examined using a barrier-destructed wrinkle mouse model.
(§1) The tape stripping was performed on the left back of the hairless mice (HR-1, 6 week old male, Hosino experimental animals) 3 times a week for 4 consecutive weeks so that the trans epithelial water loss (measured using a measuring device of water loss MEECO; Meeco Ltd, USA) was 4-8 mg/cm^2/h. Every time immediately after procedures of tape stripping, 100 μl each of the solutions of dodecyl β-D-glucoside, tetradecyl β-D-glucoside, and hexadecyl β-D-glucoside dissolved in the 50% ethanol aqueous solution so that they were 1% were applied on the left back of the mice, and as the negative control, a 50% ethanol aqueous solution (vehicle) were similarly applied. Number n was set as 6 to 7 for each group.
States of the wrinkle development after 4 weeks were scored by visual judgement. The assessment criteria of the wrinkle development state was set as “no wrinkle; 0”, “thin wrinkle; 1”, “clear wrinkle; 2”, “deep wrinkle; 3”, and the states were scored to the 0.5.
(§2) Using the similar method, the wrinkle-inhibiting effect of octadecyl β-D-glucoside (GC18) was also examined.

[2] = test system: barrier-destructed wrinkle mouse model; experiment: Relative transepidermal water loss (TEWL) in the barrier-destructed wrinkle mouse model; type: in vivo, hairless mice (HR-1); conditions: for Relative TEWL (%), left (treated) side based on right (untreated) side: 1% in 50% ethanol, 4 weeks after starting, vehicle group 186% (FIG. 3)
Experimental: as §1
Further, the trans epithelial water loss (TEWL) at the backs of the mice before starting the test and at 4 weeks after starting was also examined. The TEWL values at the left backs on which dodecyl β-D-glucoside, tetradecyl β-D-glucoside, and hexadecyl β-D-glucoside or 50% ethanol aqueous solution (vehicle) were applied after tape stripping procedure as well as the values at the right backs on which nothing was applied were measured by the Vapometer (Technologies Ltd, Kuopio, Finland) two times, respectively. The ratio of the TEWL value for the left side based on the TEWL value of the right side for each individual (the relative TEWL (%)) was obtained and the average value for each group was calculated.
as §2

[3] = Water content of the horny (corneal) layer around the human eyes (Corneometer); type: in vivo; conditions: 0.44% in 30% ethanol, two months; vehicle group reduced to 95% of the value before start (FIG. 6)
Experimental: (§3) An aqueous solution of 0.44% dodecyl β-D-glucoside/30% ethanol was successively applied to 16 adult male humans in the 30-40th's (the average age of 42.2) for two months. The dosage was set as 30 μl per application. The solution of 0.44% dodecyl β-D-glucoside/30% ethanol was applied to the lateral angle of and under one eye and 30% ethanol aqueous solution as the vehicle was applied to those of the other eye two times a day.
(§4) To examine the state of the skin around the eyes before the application and after the application, it was acclimated in a steady temperature and humidity room (23.5° C., 45% humidity) after washing the face and then photo taking of the appearance around the eyes (Nikon digital single lens reflex camera D-100) and the water content measurement of the horny layer (Corneometer, Courage+Khazaka electronic GmbH, Germany) were performed before starting the test and after starting the successive application for two months.
The rate of the water content value of the corneal layer of the eye, when the value is 100, after successive application for two months based on the water content value of the horny layer of each subject before starting the test (relative water content of the horny layer (%)) was obtained to calculate the average value for each group.

[4] = test system: fine wrinkles around the human eyes; experiment: Visual judgement of fine wrinkles under the human eye, half face double blind test; type: in vivo; conditions: 0.44% in 30% ethanol
Experimental: as §3, §4
Then, the visual appreciation judgement was performed by three judging persons.

[5] = 1% in 50% ethanol, 100 μl on left back after each tape stripping, 3 times a week, after 4 weeks, vehicle group 1.24 (FIG. 2)
[6] = 30 μl two times a day for two months, 16 adult males, versus vehicle-applied side

OC[C@H]1O[C@@H](OCCc2ccccc2)[C@H](O)[C@@H](O)[C@@H]1O [Glucoside compound (E), reference compound]
Inhibition rate (%) of TNF-α release (ADAM): −51.83%

OC[C@H]1O[C@@H](Oc2ccccc2)[C@H](O)[C@@H](O)[C@@H]1O [Glucoside compound (A), reference compound]
Inhibition rate (%) of TNF-α release (ADAM): 9.5%

CCCCCCCCCCCCO[C@@H]1O[C@H](CO)[C@@H](O)[C@H](O)[C@H]1O [Dodecyl β-D-glucoside]
Average wrinkle score by visual judgement (0 no wrinkle to 3 deep wrinkle) [1, 5]: 0.58 | Relative TEWL (%), left (treated) side based on right (untreated) side [2]: 141% | Relative water content of the horny layer (in words) [3]: reduction of the water content of the corneal layer was controlled | Inhibition rate (%) of TNF-α release (ADAM): 88% | Number of subjects Ameliorated [4, 6]: 10 | Number of subjects Deteriorated [4, 6]: 2 | Number of subjects Unchanged [4, 6]: 4 | Effect on fine wrinkles under the eye (in words) ([4]; two months, human): significantly ameliorates the fine wrinkles under the eye

CCCCCCCCCCCCCCCCO[C@@H]1O[C@H](CO)[C@@H](O)[C@H](O)[C@H]1O [Hexadecyl β-D-glucoside]
Average wrinkle score by visual judgement (0 no wrinkle to 3 deep wrinkle) [1, 5]: 0.89 | Relative TEWL (%), left (treated) side based on right (untreated) side [2]: 164% | Inhibition rate (%) of TNF-α release (ADAM): 76%

OC[C@H]1O[C@@H](Oc2cccc3cccnc23)[C@H](O)[C@@H](O)[C@@H]1O [Glucoside compound (C), reference compound]
Inhibition rate (%) of TNF-α release (ADAM): 4.8%

OC[C@H]1O[C@@H](OCc2ccccc2)[C@H](O)[C@@H](O)[C@@H]1O [Glucoside compound (B), reference compound]
Inhibition rate (%) of TNF-α release (ADAM): 3.4%

CCCCCCCCCCCO[C@@H]1O[C@H](CO)[C@@H](O)[C@H](O)[C@H]1O [Undecyl β-D-glucoside]
Inhibition rate (%) of TNF-α release (ADAM): 98%

OC[C@H]1O[C@@H](Oc2c[nH]c3ccccc23)[C@H](O)[C@@H](O)[C@@H]1O [Glucoside compound (D), reference compound]
Inhibition rate (%) of TNF-α release (ADAM): −0.5%

CCCCCCCCCCO[C@@H]1O[C@H](CO)[C@@H](O)[C@H](O)[C@H]1O [Decyl β-D-glucoside]
Inhibition rate (%) of TNF-α release (ADAM): 56%

CCCCCCCCCCCCCCO[C@@H]1O[C@H](CO)[C@@H](O)[C@H](O)[C@H]1O [Tetradecyl β-D-glucoside]
Average wrinkle score by visual judgement (0 no wrinkle to 3 deep wrinkle) [1, 5]: 0.63 | Relative TEWL (%), left (treated) side based on right (untreated) side [2]: 130% | Inhibition rate (%) of TNF-α release (ADAM): 109%

CCCCCCCCCCCCO[C@H]1O[C@H](CO)[C@@H](O)[C@H](O)[C@H]1O [Dodecyl α-D-glucoside]
Inhibition rate (%) of TNF-α release (ADAM): 91%

CCCCCCCCCCCCCCCCCCO[C@@H]1O[C@H](CO)[C@@H](O)[C@H](O)[C@H]1O [Octadecyl β-D-glucoside]
Average wrinkle score by visual judgement (0 no wrinkle to 3 deep wrinkle) ([1]; similar method, vehicle group 1.55 (FIG. 4)): 0.54 | Relative TEWL (%) ([2]; similar method, vehicle group 208% (FIG. 5)): 124% | Inhibition rate (%) of TNF-α release (ADAM): 62%
